Assay results published in PubChem BioAssay (NCI).
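96-well plates; 48 h exposure; 5 concentrations. Endpoints by linear interpolation between flanking doses. Not reached: highest tested concentration assigned. GI50 is the concentration that inhibits growth by half. TGI denotes the concentration required for complete inhibition of growth.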

Assays:
Assay in all cases: NCI tumour cell line growth inhibition, 48 h
HCC-2998 colon = test system: HCC-2998 colon
HCT-116 colon = test system: HCT-116 colon
LOX IMVI melanoma = test system: LOX IMVI melanoma
MALME-3M melanoma = test system: MALME-3M melanoma
NCI-H460 lung = test system: NCI-H460 lung
OVCAR-3 ovarian = test system: OVCAR-3 ovarian
SF-539 CNS = test system: SF-539 CNS
SK-MEL-28 melanoma = test system: SK-MEL-28 melanoma
SN12C renal = test system: SN12C renal
UO-31 renal = test system: UO-31 renal

SMILES	GI50 (HCC-2998 colon)	TGI (HCC-2998 colon)	GI50 (HCT-116 colon)	TGI (HCT-116 colon)	GI50 (LOX IMVI melanoma)	TGI (LOX IMVI melanoma)	GI50 (MALME-3M melanoma)	TGI (MALME-3M melanoma)	GI50 (NCI-H460 lung)	TGI (NCI-H460 lung)	GI50 (OVCAR-3 ovarian)	TGI (OVCAR-3 ovarian)	GI50 (SF-539 CNS)	TGI (SF-539 CNS)	GI50 (SK-MEL-28 melanoma)	TGI (SK-MEL-28 melanoma)	GI50 (SN12C renal)	TGI (SN12C renal)	GI50 (UO-31 renal)	TGI (UO-31 renal)
CC/C(=C(\CC)c1ccc(OCCN(CC)CC)cc1)c1ccc(OCCN(CC)CC)cc1	5.57 µM	18.9 µM	1.03 µM	6.25 µM	1.19 µM	5.5 µM	1.81 µM	5.87 µM	3.86 µM	15.3 µM	3.45 µM	16.1 µM	1.29 µM	3.85 µM	1.67 µM	3.37 µM	5.32 µM	21.3 µM	0.996 µM	11.3 µM
ON(CCc1ccccn1)Cc1ccccc1		> 100 µM		> 100 µM		> 100 µM		> 100 µM		> 100 µM		> 100 µM		> 100 µM		> 100 µM		> 100 µM		> 100 µM
CCC(=C(c1ccc(OCc2ccccc2)cc1)c1ccc(OCc2ccccc2)cc1)c1ccc(OC)cc1		> 100 µM		> 100 µM		> 100 µM		> 100 µM		> 100 µM		> 100 µM		> 100 µM		> 100 µM		> 100 µM		> 100 µM
O=C1c2ccccc2C(=O)c2nc(-c3ccccc3)c(-c3ccccc3)nc21		> 100 µM		> 100 µM		> 56.1 µM		> 100 µM		> 100 µM		13.2 µM		> 100 µM		> 100 µM		> 100 µM		> 100 µM
O=C(O)CC1(C(=O)O)CCCCC1		> 100 µM		> 100 µM		> 100 µM		> 100 µM		> 100 µM		> 100 µM		> 100 µM		> 100 µM		> 100 µM		> 100 µM
Cc1ccc2sc3c(NCCCNCCO)nc4ccccc4c3c(=O)c2c1	1.64 µM	3.32 µM	1.41 µM	2.73 µM	1.49 µM	2.94 µM	1.69 µM	3.18 µM	1.7 µM	3.24 µM	1.75 µM	3.26 µM	1.68 µM	3.08 µM	1.8 µM	3.36 µM	1.6 µM	3.16 µM	1.28 µM	2.58 µM
CNC1C(O)CC(OC2C/C=C(\C)C/C(C)=C/C=C/CCC(C)CNC(=O)/C=C/C=C/C2C)OC1C (stereo not given)		1.42 µM		0.324 µM		0.263 µM		3 µM		0.317 µM		1.78 µM		3.14 µM		2.97 µM		1.94 µM		5.85 µM
